{
  "source": "patent US20110053898A1",
  "about": "“TOPICAL COMPOSITION COMPRISING VITAMIN D ANALOGUE AND CORTICOSTEROIDS” (GLENMARK GENERICS LTD, priority 2009, published 2011)",
  "origin": "cited, not measured here",
  "conditions": "vitamin-D3 derivative versus calcitriol",
  "data": [
    {"smiles": "C=C1/C(=C/C=C2\\CCC[C@]3(C)[C@@H]([C@H](C)/C=C/C(O)C4CC4)CC[C@@H]23)C[C@@H](O)C[C@@H]1O", "note": "(stereo partly shown) [Calcipotriene]", "values": [
      {"measurement": "Power relative to the natural hormone calcitriol", "result": "about 1%"}
    ]}
  ]
}
